Experimental data from article PMC12649549, “Sequence Permutation Generated Lysine and Tryptophan-Rich Antimicrobial Peptides with Enhanced Therapeutic Index” (Antibiotics, 2025).
Like-named read-outs stand apart in the source and are kept apart here.

Assays:
Gram-positive bacteria = experiment: Geometric mean MIC and therapeutic index, Gram-positive bacteria; format: cell-based; settings: Gram-positive bacteria; for GM G+ (geometric mean of the MIC values): MH broth, MIC >50 µg/mL counted as 100 µg/mL; for Therapeutic Index (TI) G+: HC10/GM
How it was run: (§1)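 Therapeutic index taken as the ratio of HC10 on human erythrocytes to geometric mean MIC. MICs from CLSI broth microdilution with peptides at 50 down to 0.78 µg/mL, inoculum 5 × 10^5 CFU/mL, in MH or modified LYM broth; triplicate independent experiments.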

S. aureus ATCC 33592 = system: S. aureus ATCC 33592
How it was run: (§2)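 Salt and pH tolerance was assessed by determining MICs in LYM medium containing 50–300 mM NaCl, 0.5–2.5 mM MgCl2, or at pH 4.5–6.5, alongside MH broth. The inoculum was 5 × 10^5 CFU/mL.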

[1] = system: Escherichia coli (ATCC 25922)
How it was run: as §2

S. aureus ATCC 33593 = system: S. aureus ATCC 33593
How it was run: as §2

Gram-negative bacteria = experiment: Geometric mean MIC and therapeutic index, Gram-negative bacteria; format: cell-based; settings: Gram-negative bacteria; for GM G− (geometric mean of the MIC values): MH broth, MIC >50 µg/mL counted as 100 µg/mL; for Therapeutic Index (TI) G−: HC10/GM
How it was run: as §1

[2] = system: Both Gram-positive and -negative bacteria; experiment: Geometric mean MIC, therapeutic index and fold changes of MIC, whole panel of strains; format: cell-based; settings: for GM G−/+ (geometric mean of the MIC values): Both Gram-positive and -negative bacteria, MH broth, MIC >50 µg/mL counted as 100 µg/mL; for Therapeutic Index (TI) G−/+: HC10/GM, both Gram-positive and -negative bacteria
How it was run: as §1

[3] = LYM broth, 0 mM NaCl, 16 h, 37 °C
[4] = LYM broth, 50 mM NaCl, 16 h, 37 °C
[5] = LYM broth, 100 mM NaCl, 16 h, 37 °C
[6] = LYM broth, 200 mM (NaCl), 16 h, 37 °C
[7] = LYM broth, 300 mM (NaCl), 16 h, 37 °C
[8] = MH broth, 5 × 10^5 CFU/mL, 16 h, 37 °C, repeated three times

Ac-LKWLAKKKKWRKW-NH2 [Peptide W5K06]
GM G+ (geometric mean of the MIC values) (Gram-positive bacteria): 75.8 µg/mL
Therapeutic Index (TI) G+ (Gram-positive bacteria): 1.4
MIC (S. aureus ATCC 33592; [3]): 12.5 µg/mL
MIC (S. aureus ATCC 33592; LYM broth, 0.5 mM MgCl2): 12.5 µg/mL
MIC (S. aureus ATCC 33592; LYM broth, 1.5 mM MgCl2): 25 µg/mL
MIC (S. aureus ATCC 33592; LYM broth, 2.5 mM MgCl2): 25 µg/mL
MIC (S. aureus ATCC 33592; [4]): 25 µg/mL
MIC (S. aureus ATCC 33592; [5]): 50 µg/mL
MIC (S. aureus ATCC 33592; [6]): >50 µg/mL
MIC (S. aureus ATCC 33592; [7]): >50 µg/mL
MIC (S. aureus ATCC 33592; LYM broth, pH 4.5): 12.5 µg/mL
MIC (S. aureus ATCC 33592; LYM broth, pH 5.5): 12.5 µg/mL
MIC (S. aureus ATCC 33592; LYM broth, pH 6.5): 6.25 µg/mL
MIC (S. aureus ATCC 33592; [8]): >50 µg/mL
MIC [1, 3]: 6.25 µg/mL
MIC ([1]; LYM broth, 0.5 mM MgCl2): 6.25 µg/mL
MIC ([1]; LYM broth, 1.5 mM MgCl2): 6.25 µg/mL
MIC ([1]; LYM broth, 2.5 mM MgCl2): 6.25 µg/mL
MIC [1, 4]: 12.5 µg/mL
MIC [1, 5]: 50 µg/mL
MIC [1, 6]: >50 µg/mL
MIC [1, 7]: >50 µg/mL
MIC ([1]; LYM broth, pH 4.5): 12.5 µg/mL
MIC ([1]; LYM broth, pH 5.5): 6.25 µg/mL
MIC ([1]; LYM broth, pH 6.5): 3.13 µg/mL
MIC [1, 8]: 25 µg/mL
MIC (S. aureus ATCC 33593; [3]): 12.5 µg/mL
MIC (S. aureus ATCC 33593; LYM broth, 0.5 mM MgCl2): 12.5 µg/mL
MIC (S. aureus ATCC 33593; LYM broth, 1.5 mM MgCl2): 25 µg/mL
MIC (S. aureus ATCC 33593; LYM broth, 2.5 mM MgCl2): 25 µg/mL
MIC (S. aureus ATCC 33593; [4]): 25 µg/mL
MIC (S. aureus ATCC 33593; [5]): 50 µg/mL
MIC (S. aureus ATCC 33593; [6]): >50 µg/mL
MIC (S. aureus ATCC 33593; [7]): >50 µg/mL
MIC (S. aureus ATCC 33593; LYM broth, pH 4.5): 12.5 µg/mL
MIC (S. aureus ATCC 33593; LYM broth, pH 5.5): 6.25 µg/mL
MIC (S. aureus ATCC 33593; LYM broth, pH 6.5): 6.25 µg/mL
MIC (S. aureus ATCC 33593; [8]): >50 µg/mL
GM G− (geometric mean of the MIC values) (Gram-negative bacteria): 43.5 µg/mL
Therapeutic Index (TI) G− (Gram-negative bacteria): 2.5
GM G−/+ (geometric mean of the MIC values) [2]: 57.4 µg/mL
Therapeutic Index (TI) G−/+ [2]: 1.9

Ac-RKWLKWLAKKKKW-NH2 [Peptide W5K03]
GM G+ (geometric mean of the MIC values) (Gram-positive bacteria): 66.0 µg/mL
Therapeutic Index (TI) G+ (Gram-positive bacteria): 1.6
MIC (S. aureus ATCC 33592; [3]): 25 µg/mL
MIC (S. aureus ATCC 33592; LYM broth, 0.5 mM MgCl2): 25 µg/mL
MIC (S. aureus ATCC 33592; LYM broth, 1.5 mM MgCl2): 25 µg/mL
MIC (S. aureus ATCC 33592; LYM broth, 2.5 mM MgCl2): 25 µg/mL
MIC (S. aureus ATCC 33592; [4]): 25 µg/mL
MIC (S. aureus ATCC 33592; [5]): 50 µg/mL
MIC (S. aureus ATCC 33592; [6]): >50 µg/mL
MIC (S. aureus ATCC 33592; [7]): >50 µg/mL
MIC (S. aureus ATCC 33592; LYM broth, pH 4.5): 25 µg/mL
MIC (S. aureus ATCC 33592; LYM broth, pH 5.5): 12.5 µg/mL
MIC (S. aureus ATCC 33592; LYM broth, pH 6.5): 12.5 µg/mL
MIC (S. aureus ATCC 33592; [8]): >50 µg/mL
MIC [1, 3]: 6.25 µg/mL
MIC ([1]; LYM broth, 0.5 mM MgCl2): 12.5 µg/mL
MIC ([1]; LYM broth, 1.5 mM MgCl2): 25 µg/mL
MIC ([1]; LYM broth, 2.5 mM MgCl2): 25 µg/mL
MIC [1, 4]: 25 µg/mL
MIC [1, 5]: 50 µg/mL
MIC [1, 6]: >50 µg/mL
MIC [1, 7]: >50 µg/mL
MIC ([1]; LYM broth, pH 4.5): 6.25 µg/mL
MIC ([1]; LYM broth, pH 5.5): 6.25 µg/mL
MIC ([1]; LYM broth, pH 6.5): 3.13 µg/mL
MIC [1, 8]: 50 µg/mL
MIC (S. aureus ATCC 33593; [3]): 25 µg/mL
MIC (S. aureus ATCC 33593; LYM broth, 0.5 mM MgCl2): 25 µg/mL
MIC (S. aureus ATCC 33593; LYM broth, 1.5 mM MgCl2): 25 µg/mL
MIC (S. aureus ATCC 33593; LYM broth, 2.5 mM MgCl2): 50 µg/mL
MIC (S. aureus ATCC 33593; [4]): 25 µg/mL
MIC (S. aureus ATCC 33593; [5]): 50 µg/mL
MIC (S. aureus ATCC 33593; [6]): >50 µg/mL
MIC (S. aureus ATCC 33593; [7]): >50 µg/mL
MIC (S. aureus ATCC 33593; LYM broth, pH 4.5): 25 µg/mL
MIC (S. aureus ATCC 33593; LYM broth, pH 5.5): 25 µg/mL
MIC (S. aureus ATCC 33593; LYM broth, pH 6.5): 12.5 µg/mL
MIC (S. aureus ATCC 33593; [8]): >50 µg/mL
GM G− (geometric mean of the MIC values) (Gram-negative bacteria): 16.5 µg/mL
Therapeutic Index (TI) G− (Gram-negative bacteria): 6.6
GM G−/+ (geometric mean of the MIC values) [2]: 33.0 µg/mL
Therapeutic Index (TI) G−/+ [2]: 3.3
